From ChEMBL document CHEMBL1131884, “Dicationic 2-fluorenonylcarbapenems: potent anti-MRS agents with improved solubility and pharmacokinetic properties” (Bioorg Med Chem Lett, 1999)
pIC50: −log10 of the molar value. Converted amounts (≈) assume the structure as drawn.

Columns and labels:
MecA = target: T1, MecA (Staphylococcus aureus, UniProt Q7DHH4); assay: Binding affinity against PBP2a receptor by competition analysis with [3H]benzylpenicillin using cell membrane fractions from the MRSA COL strain.
T1 sequence (Q7DHH4 whole entry): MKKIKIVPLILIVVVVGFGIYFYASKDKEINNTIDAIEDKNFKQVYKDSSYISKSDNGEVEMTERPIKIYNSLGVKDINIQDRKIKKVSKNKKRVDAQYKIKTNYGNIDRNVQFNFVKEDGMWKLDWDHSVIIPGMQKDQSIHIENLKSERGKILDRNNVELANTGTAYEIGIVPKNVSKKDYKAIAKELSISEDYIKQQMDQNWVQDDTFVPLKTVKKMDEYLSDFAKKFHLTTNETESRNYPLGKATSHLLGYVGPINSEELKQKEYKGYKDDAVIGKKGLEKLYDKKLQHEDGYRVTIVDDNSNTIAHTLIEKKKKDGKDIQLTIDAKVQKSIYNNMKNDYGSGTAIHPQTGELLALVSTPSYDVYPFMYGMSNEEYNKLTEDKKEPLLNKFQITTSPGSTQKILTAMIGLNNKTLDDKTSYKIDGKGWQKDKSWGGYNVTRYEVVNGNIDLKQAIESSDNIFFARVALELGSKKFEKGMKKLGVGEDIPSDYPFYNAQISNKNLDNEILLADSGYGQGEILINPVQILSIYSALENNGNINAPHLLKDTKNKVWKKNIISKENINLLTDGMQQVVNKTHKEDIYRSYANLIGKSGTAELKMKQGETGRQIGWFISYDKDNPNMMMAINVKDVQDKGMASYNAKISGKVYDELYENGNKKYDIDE

Staphylococcus sp. = assay: Antibacterial activity against methicillin-resistant coagulase negative Staphylococci (MRCNS); assay type: functional
Staphylococcus aureus [1] = assay: Antibacterial activity against methicillin-resistant Staphylococcus aureus (MRSA); assay type: functional
Mus musculus [2] = assay: In vivo antibacterial activity against MRSA 76 virginia strain at the dose ~1 *10e7 cfu in 5 percent hog gastric mucin along with antibiotic by sc administration at 0 and +4 hrs in mice; assay type: functional
Streptococcus pneumoniae = assay: Antibacterial activity against penicillin-resistant Streptococcus pneumoniae; assay type: functional
Mus musculus [3] = assay: In vivo antibacterial activity against MSSA MB 2985 strain at the dose ~4 *10e7 cfu in brain heart broth along with antibiotic by sc administration at 0 hour in mice; assay type: functional
Enterococcus faecalis [4] = assay: Antibacterial activity against vancomycin-resistant Enterococcus faecalis strain; assay type: functional
Enterococcus faecium = assay: Antibacterial activity against vancomycin-resistant Enterococcal faecium strain; assay type: functional
Mus musculus [5] = assay: In vivo antibacterial activity against MSSA MB 2985 strain at the dose ~4 *10e7 cfu in brain heart broth along with antibiotic by administration at 0 hour in mice; assay type: functional
Bacteria = assay: Antibacterial activity against Gram negative bacteria; assay type: functional
Streptococcus pyogenes = assay: Antibacterial activity against Streptococcus pyogenes; assay type: functional
[6] = target: T2, Dipeptidase 1 (Sus scrofa) (UniProt P22412); assay: Susceptibility to mammalian dehydropeptidas, DHP-1(Porcine)
T2 sequence (whole entry): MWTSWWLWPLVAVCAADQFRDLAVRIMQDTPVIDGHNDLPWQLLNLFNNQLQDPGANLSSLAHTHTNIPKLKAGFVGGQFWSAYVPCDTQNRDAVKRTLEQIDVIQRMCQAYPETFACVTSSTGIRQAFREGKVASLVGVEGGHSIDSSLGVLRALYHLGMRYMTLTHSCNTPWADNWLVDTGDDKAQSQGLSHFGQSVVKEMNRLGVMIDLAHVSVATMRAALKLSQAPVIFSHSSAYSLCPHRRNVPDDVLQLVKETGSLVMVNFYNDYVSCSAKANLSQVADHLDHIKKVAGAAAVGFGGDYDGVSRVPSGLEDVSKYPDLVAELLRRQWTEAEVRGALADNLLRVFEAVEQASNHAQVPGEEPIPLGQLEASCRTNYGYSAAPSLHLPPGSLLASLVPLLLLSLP

Enterococcus faecalis [7] = assay: Antibacterial activity against Enterococcus faecalis; assay type: functional
Staphylococcus aureus [8] = assay: Antibacterial activity against MSSA (Methicillin-sensitive Staphylococcus aureus); assay type: functional

SMILES	pIC50 (MecA)	MIC50 (Staphylococcus sp.) [µg/mL]	MIC90 (Staphylococcus sp.) [µg/mL]	MIC50 (Staphylococcus aureus [1]) [µg/mL]	MIC90 (Staphylococcus aureus [1]) [µg/mL]	other results
C[C@@H](O)[C@H]1C(=O)N2C(C(=O)O)=C(c3ccc4c(c3)-c3ccc(C[N+]56CC[N+](CCCC(N)=O)(CC5)CC6)cc3C4=O)[C@H](C)[C@H]12.[Cl-].[Cl-]	5.53	4	8	4	4	
C[C@@H](O)[C@H]1C(=O)N2C(C(=O)O)=C(c3ccc4c(c3)-c3ccc(C[N+]56CC[N+](CC(=O)Nc7ccncc7)(CC5)CC6)cc3C4=O)[C@H](C)[C@H]12.[Cl-].[Cl-]	5.92	2	4	1	2	
C[C@@H](O)[C@H]1C(=O)N2C(C(=O)O)=C(c3ccc4c(c3)-c3ccc(C[N+]56CC[N+](CC#N)(CC5)CC6)cc3C4=O)C[C@H]12.[Cl-].[Cl-]	6.32	2	4	2	4	
C[C@@H](O)[C@H]1C(=O)N2C(C(=O)O)=C(c3ccc4c(c3)-c3ccc(C[N+]56CC[N+](CC(=O)Nc7ccccn7)(CC5)CC6)cc3C4=O)[C@H](C)[C@H]12.[Cl-].[Cl-]	6.37	2	8	2	4	
C[C@@H](O)[C@H]1C(=O)N2C(C(=O)O)=C(c3ccc4c(c3)-c3ccc(C[N+]56CC[N+](CC(=O)Nc7ccc(C(N)=O)cc7)(CC5)CC6)cc3C4=O)[C@H](C)[C@H]12.[Cl-].[Cl-]	5.71	0.5	2	0.25	0.5	
CC(=O)c1cccc(NC(=O)C[N+]23CC[N+](Cc4ccc5c(c4)C(=O)c4ccc(C6=C(C(=O)O)N7C(=O)[C@H]([C@@H](C)O)[C@H]7[C@H]6C)cc4-5)(CC2)CC3)c1.[Cl-].[Cl-]	5.89	1	4	1	2	
CN[C@H](CC(C)C)C(=O)N[C@H]1C(=O)N[C@@H](CC(N)=O)C(=O)N[C@H]2C(=O)N[C@H]3C(=O)N[C@H](C(=O)N[C@H](C(=O)O)c4cc(O)cc(O)c4-c4cc3ccc4O)[C@H](O)c3ccc(c(Cl)c3)Oc3cc2cc(c3O[C@@H]2O[C@H](CO)[C@@H](O)[C@H](O)[C@H]2O[C@H]2C[C@](C)(N)[C@H](O)[C@H](C)O2)Oc2ccc(cc2Cl)[C@H]1O [VANCOMYCIN]		4 (≈ 2.76 µM)	4 (≈ 2.76 µM)	1 (≈ 0.69 µM)	2 (≈ 1.38 µM)	ED50 (Mus musculus [2]): 2.33 mg kg-1 dose-1; MIC (Mus musculus [2]): 1 µg/mL (≈ 0.69 µM); MIC (Streptococcus pneumoniae): 0.25 µg/mL (≈ 0.173 µM); ED50 (Mus musculus [3]): 3.7 mg/kg; MIC (Enterococcus faecalis [4]): 32 µg/mL (≈ 22.1 µM); MIC (Enterococcus faecium): > 64 µg/mL; MIC (Mus musculus [5]): 1 µg/mL (≈ 0.69 µM); MIC (Bacteria): > 64 µg/mL; MIC (Streptococcus pyogenes): 0.25 µg/mL (≈ 0.173 µM)
C[C@@H](O)[C@H]1C(=O)N2C(C(=O)O)=C(c3ccc4c(c3)-c3ccc(C[N+]56CC[N+](CC(=O)Nc7ccc(CCO)cc7)(CC5)CC6)cc3C4=O)[C@H](C)[C@H]12.[Cl-].[Cl-]	5.88	2	4	1	2	
CCC[N+]12CC[N+](Cc3ccc4c(c3)C(=O)c3ccc(C5=C(C(=O)O)N6C(=O)[C@H]([C@@H](C)O)[C@H]6C5)cc3-4)(CC1)CC2.[Cl-].[Cl-]	6.34	2	4	2	4	
C[C@@H](O)[C@H]1C(=O)N2C(C(=O)O)=C(c3ccc4c(c3)-c3ccc(C[N+]56CC[N+](CC#N)(CC5)CC6)cc3C4=O)[C@H](C)[C@H]12.[Cl-].[Cl-]	6.33	4	8	2	4	
C[C@@H](O)[C@H]1C(=O)N2C(C(=O)O)=C(c3ccc4c(c3)-c3ccc(C[N+]56CC[N+](CC(=O)Nc7ccc(O)cc7)(CC5)CC6)cc3C4=O)[C@H](C)[C@H]12.[Cl-].[Cl-]	6.19	1	4	0.5	1	
C[C@@H](O)[C@H]1C(=O)N2C(C(=O)O)=C(SCCNC=N)C[C@H]12 [IMIPENEM ANHYDROUS]		128 (≈ 428 µM)	256 (≈ 855 µM)	64 (≈ 214 µM)	128 (≈ 428 µM)	ED50 (Mus musculus [2]): 15.7 mg kg-1 dose-1; MIC (Mus musculus [2]): 64 µg/mL (≈ 214 µM); MIC (Streptococcus pneumoniae): 0.35 µg/mL (≈ 1.17 µM); Rate of hydrolysis [6]: 1; ED50 (Mus musculus [3]): 0.021 mg/kg; MIC (Enterococcus faecalis [7]): 2 µg/mL (≈ 6.68 µM); MIC (Enterococcus faecalis [4]): 8 µg/mL (≈ 26.7 µM); MIC (Enterococcus faecium): > 64 µg/mL; MIC (Mus musculus [5]): 0.008 µg/mL (≈ 0.0267 µM); MIC (Staphylococcus aureus [8]): 0.03 µg/mL (≈ 0.1 µM); MIC (Bacteria): 0.45 µg/mL (≈ 1.5 µM); MIC (Streptococcus pyogenes): < 0.031 µg/mL
C[C@@H](O)[C@H]1C(=O)N2C(C(=O)O)=C(c3ccc4c(c3)-c3ccc(C[N+]56CC[N+](CC(=O)N(C)C)(CC5)CC6)cc3C4=O)[C@H](C)[C@H]12.[Cl-].[Cl-]	6.24	4	16	4	8	
C[C@@H](O)[C@H]1C(=O)N2C(C(=O)O)=C(c3ccc4c(c3)-c3ccc(C[N+]56CC[N+](CC(=O)Nc7cccc(C(N)=O)c7)(CC5)CC6)cc3C4=O)[C@H](C)[C@H]12.[Cl-].[Cl-]	5.91	1	2	1	1	
C[C@@H](O)[C@H]1C(=O)N2C(C(=O)O)=C(c3ccc4c(c3)-c3ccc(C[N+]56CC[N+](CC(=O)c7ccccc7)(CC5)CC6)cc3C4=O)[C@H](C)[C@H]12.[Cl-].[Cl-]	6.06	2	4	1	2	
C[C@@H](O)[C@H]1C(=O)N2C(C(=O)O)=C(c3ccc4c(c3)-c3ccc(C[N+]56CC[N+](CCO)(CC5)CC6)cc3C4=O)C[C@H]12.[Cl-].[Cl-]	6.56	2	4	2	4	
CC[N+]12CC[N+](Cc3ccc4c(c3)C(=O)c3ccc(C5=C(C(=O)O)N6C(=O)[C@H]([C@@H](C)O)[C@H]6C5)cc3-4)(CC1)CC2.[Cl-].[Cl-]	6.38	2	4	2	4	
C[C@@H](O)[C@H]1C(=O)N2C(C(=O)O)=C(c3ccc4c(c3)-c3ccc(C[N+]56CC[N+](CC(=O)N(C)c7ccccc7)(CC5)CC6)cc3C4=O)[C@H](C)[C@H]12.[Cl-].[Cl-]	5.91	8	16	4	4	
C[C@@H](O)[C@H]1C(=O)N2C(C(=O)O)=C(c3ccc4c(c3)-c3ccc(C[N+]56CC[N+](C)(CC5)CC6)cc3C4=O)[C@H](C)[C@H]12.[Cl-].[Cl-]	5.91	4	8	2	4	
C[C@@H](O)[C@H]1C(=O)N2C(C(=O)O)=C(c3ccc4c(c3)-c3ccc(C[N+]56CC[N+](CC(=O)Nc7cccnc7)(CC5)CC6)cc3C4=O)[C@H](C)[C@H]12.[Cl-].[Cl-]	6.21	2	4	1	2	
C[C@@H](O)[C@H]1C(=O)N2C(C(=O)O)=C(c3ccc4c(c3)-c3ccc(C[N+]56CC[N+](CC(=O)Nc7nccs7)(CC5)CC6)cc3C4=O)[C@H](C)[C@H]12.[Cl-].[Cl-]	6.07	4	8	2	4	
C[C@@H](O)[C@H]1C(=O)N2C(C(=O)O)=C(c3ccc4c(c3)-c3ccc(C[N+]56CC[N+](CC(=O)Nc7ccc(C#N)cc7)(CC5)CC6)cc3C4=O)[C@H](C)[C@H]12.[Cl-].[Cl-]	5.85	1	4	1	2	
